Experimental data from article PMC11191095, “QSAR Reveals Decreased Lipophilicity of Polar Residues Determines the Selectivity of Antimicrobial Peptide Activity” (ACS Omega, 2024).
Where a SMILES comes first, the peptide text is derived from it.

Experiments:
E. coli LEC001 = assay: microbe, parasite or virus in culture; format: cell-based, Escherichia coli; settings: E. coli LEC001 (R); shown in µM
How it was run: (§1)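 Peptides 128→2 μg/mL, 2-fold series; inoculum ~5 × 10^5 CFU/mL from overnight culture (OD600 0.01, mixed 1:1). MHB non-cation-adjusted for bacteria, RPMI 1640 + 2% glucose for fungi. 37 °C, 20 h, OD600. MIC50/MIC90 at 50%/90% inhibition; n ≥ 3.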

E. coli NCTC 12923 = assay: microbe, parasite or virus in culture; format: cell-based, Escherichia coli; settings: E. coli NCTC 12923 (S); shown in µM
How it was run: as §1

P. aeruginosa NCTC 13437 = assay: microbe, parasite or virus in culture; format: cell-based, Pseudomonas aeruginosa; settings: P. aeruginosa NCTC 13437 (R); shown in µM
How it was run: as §1

P. aeruginosa PAO1 = assay: microbe, parasite or virus in culture; format: cell-based, Pseudomonas aeruginosa; settings: P. aeruginosa PAO1 (S)
How it was run: as §1

A. baumannii ATCC 17978 = assay: microbe, parasite or virus in culture; format: cell-based, Acinetobacter baumannii; settings: A. baumannii ATCC 17978 (S); shown in µM
How it was run: as §1

A. baumannii AYE = assay: microbe, parasite or virus in culture; format: cell-based, Acinetobacter baumannii; settings: A. baumannii AYE (R); shown in µM
How it was run: as §1

K. pneumoniae M6 = assay: microbe, parasite or virus in culture; format: cell-based, Klebsiella pneumoniae; settings: K. pneumoniae M6 (S); shown in µM
How it was run: as §1

K. pneumoniae NCTC 13368 = assay: microbe, parasite or virus in culture; format: cell-based, Klebsiella pneumoniae; settings: K. pneumoniae NCTC 13368 (R); shown in µM
How it was run: as §1

S. aureus (MRSA) 1199B = assay: microbe, parasite or virus in culture; format: cell-based, Staphylococcus aureus; settings: S. aureus (MRSA) 1199B (R); shown in µM
How it was run: as §1

[1] = tested on: S. aureus (MRSA) NCTC 13616; assay: microbe, parasite or virus in culture; format: cell-based, Staphylococcus aureus; settings: S. aureus (MRSA) NCTC 13616 (R); shown in µM
How it was run: as §1

S. aureus (MRSA) USA300 = assay: microbe, parasite or virus in culture; format: cell-based, Staphylococcus aureus; settings: S. aureus (MRSA) USA300 (R); shown in µM
How it was run: as §1

[2] = tested on: S. aureus (MSSA) ATCC 9144; assay: microbe, parasite or virus in culture; format: cell-based, Staphylococcus aureus; settings: S. aureus (MSSA) ATCC 9144 (S); shown in µM
How it was run: as §1

C. auris TDG 1912 = assay: microbe, parasite or virus in culture; format: cell-based, Candida auris; settings: C. auris TDG 1912
How it was run: as §1

C. albicans NCPF 3281 = assay: microbe, parasite or virus in culture; format: cell-based; settings: C. albicans NCPF 3281; shown in µM
How it was run: as §1

C. glabrata NCPF 8018 = assay: microbe, parasite or virus in culture; format: cell-based; settings: C. glabrata NCPF 8018; shown in µM
How it was run: as §1

C. krusei NCPF 3876 = assay: microbe, parasite or virus in culture; format: cell-based; settings: C. krusei NCPF 3876; shown in µM
How it was run: as §1

[3] = tested on: C. parapsilosis NCPF 3209; assay: microbe, parasite or virus in culture; format: cell-based; settings: C. parapsilosis NCPF 3209; shown in µM
How it was run: as §1

C. tropicalis NCPF 8760 = assay: microbe, parasite or virus in culture; format: cell-based; settings: C. tropicalis NCPF 8760; shown in µM
How it was run: as §1

human erythrocytes = assay: In vitro hemolytic activity; format: cell-based; settings: human erythrocytes in PBS, 1 h, 37 °C, OD550; from dose response curves
Protocol: Potential erythrocyte hemolysis was tested by incubating serial dilutions of the AMPs in PBS with freshly collected erythrocytes at a ratio of 1:1 in 96-well polypropylene V-shape plates for 1 h at 37 °C. Control wells were treated with 0.1% Triton-X-100 to ensure complete lysis or PBS-only to represent no lysis. The erythrocytes were collected by centrifugation and the OD550 of the supernatant was measured using a plate reader. The percentage hemolysis was calculated as [drawing 1] 1 where Apeptide is the absorbance value of erythrocytes exposed to a known peptide concentration, Agrowth control is the absorbance of erythrocytes exposed to 0.1% Triton-X-100 and Ablank is the absorbance of erythrocytes exposed to the PBS. The concentrations at which a peptide caused 10% (HC10) and 50% (HC50) hemolysis was determined from the dose response curves.

HaCat cell line = assay: In vitro HaCat cytotoxicity (MTT); format: cell-based, human; settings: 21 h exposure, OD570, relative to untreated control
Protocol: The HaCat cell line (Cellonex, South Africa) was cultured in Dulbecco’s Modified Eagle Medium (DMEM) supplemented with 10% heat-inactivated fetal calf serum (FCS) and 1% antibiotic-antimycotic (Abs) and maintained at 5–10% CO2, 37 °C, 95% humidity. For cytotoxicity screening, 5.56 × 10^4 cells/mL were plated in a 96-well plate. After 24 h incubation, the cells are initially exposed to each peptide at a concentration of 256 μg/mL or 0.1% Triton-X-100 as the control for 21 h. If cytotoxicity was observed, at a level of significance of p < 0.0001 compared with the untreated control after 21 h, a dose-response assay was undertaken. Cell viability was determined by adding 10% 3-(4,5-dimethyl-2-thiazolyl)-2,5-diphenyl-2H-tetrazolium bromide (MTT) (1 mg/mL), to each well and after a further 3 h incubation the media was discarded, and the formazan crystals dissolved by adding 25% DMSO in ethanol. The absorbance was measured at OD570 by using the FLUOstar Omega multidetection microplate reader (BMG Labtech). Percentage cell viability was calculated relative to the untreated control. The LC50 was defined as the concentration of AMP treatment that results in 50% lethality of HaCat cells and was determined from the dose-response curves.

CC[C@H](C)[C@H](N)C(=O)N[C@@H](CC(C)C)C(=O)N[C@@H](CCCCN)C(=O)N[C@@H](CCCCN)C(=O)N[C@H](C(=O)N[C@@H](Cc1c[nH]c2ccccc12)C(=O)N[C@@H](CCC(=O)O)C(=O)NCC(=O)N[C@H](C(=O)N[C@@H](CCCCN)C(=O)N[C@@H](CO)C(=O)N[C@@H](CC(C)C)C(=O)N[C@@H](Cc1ccccc1)C(N)=O)[C@@H](C)CC)[C@@H](C)CC [K3-IsCTa] (H-ILKKIWEGIKSLF-NH2)
Modal MIC (E. coli LEC001): 5 µM
Modal MIC (E. coli NCTC 12923): 5 µM
Modal MIC (P. aeruginosa NCTC 13437): 39.8 µM
Modal MIC (P. aeruginosa PAO1; MHB, 37 °C, 20 h, OD600, min. three biological repeats): > 128 µg/mL
Modal MIC (P. aeruginosa PAO1; shown in µM): > 79.5 µM
Modal MIC (A. baumannii ATCC 17978): 2.5 µM
Modal MIC (A. baumannii AYE): 5 µM
Modal MIC (K. pneumoniae M6): 9.9 µM
Modal MIC (K. pneumoniae NCTC 13368): 9.9 µM
Modal MIC (S. aureus (MRSA) 1199B): 5 µM
Modal MIC [1]: 5 µM
Modal MIC (S. aureus (MRSA) USA300): 9.9 µM
Modal MIC [2]: 5 µM
Modal MIC50 (C. auris TDG 1912; 50% growth inhibition, RPMI 1640 + 2% glucose, 37 °C, 20 h, OD600): > 128 µg/mL
Modal MIC90 (C. auris TDG 1912; 90% growth inhibition, RPMI 1640 + 2% glucose, 37 °C, 20 h, OD600): > 128 µg/mL
Modal MIC50 (C. auris TDG 1912; shown in µM): > 79.5 µM
Modal MIC90 (C. auris TDG 1912; shown in µM): > 79.5 µM
Modal MIC50 (C. albicans NCPF 3281): 19.9 µM
Modal MIC90 (C. albicans NCPF 3281): 39.8 µM
Modal MIC50 (C. glabrata NCPF 8018): 39.8 µM
Modal MIC90 (C. glabrata NCPF 8018): 39.8 µM
Modal MIC50 (C. krusei NCPF 3876): 9.9 µM
Modal MIC90 (C. krusei NCPF 3876): 19.9 µM
Modal MIC50 [3]: 39.8 µM
Modal MIC90 [3]: 39.8 µM
Modal MIC50 (C. tropicalis NCPF 8760): 2.5 µM
Modal MIC90 (C. tropicalis NCPF 8760): 5 µM
HC10 (concentration causing 10% hemolysis) (human erythrocytes): 84 µg/mL
% HaCat cell death at initial screening (256μg/mL) ± SD (HaCat cell line): 104.1 ± 11.9%
